Source: patent publication EP0943680A1 (priority 1998, dated 1999)
Values after ≈ are worked out from the molar mass of the structure shown. “Also recorded” adds a separate entry of the source. Like-named read-outs stand apart in the source and are kept apart here. Marks after values point to notes of the source that are not given here.

Assays:
[1] = system: ΨCRIP Murine Amphotropic Packaging Cells lin ^+ clones; assay: cells; conditions: Mus musculus
[2] = system: Sk-N-MC Human Neuroblastoma; format: cell-based; conditions: parental Sk-N-MC
[3] = system: FLYA13 Human Amphotropic Packaging Cells lin ^+ clones; assay: cells; format: cell-based
[4] = system: Sk-N-MC Human Neuroblastoma lin ^+ clones; assay: cells; format: cell-based
[5] = system: U-373 MG Human Glioblastoma; format: cell-based; conditions: parental U-373 MG
Hs 683 Human Glioma = format: cell-based; conditions: parental Hs 683
[6] = system: ΨCRIP Murine Amphotropic Packaging Cells; format: cell-based; conditions: parental ΨCRIP
C6 Rat glioma = format: cell-based
[7] = system: C6 Rat glioma lin ^+ clones; assay: cells; format: cell-based; conditions: for IC50: Rattus norvegicus
adults = conditions: human, in vivo
[8] = system: Hs 683 Human Glioma lin ^+ clones; assay: cells; format: cell-based; conditions: Hs 683 lin+
Female hamsters = conditions: oral dose of 108 mg of linamarin/kg body weight; cited from earlier work
[9] = system: brain tumor of glioblastoma-C6lin transfected cells; format: in vivo, Wistar rats
[10] = in the absence of linamarase; cited from earlier work
[11] = system: ΨCRIPlin /ΨCRIP red or ΨCRIPlin /3T3 red; format: cell-based; conditions: 100 µg/ml linamarin
[12] = system: Ag 9181 Human Fibroblasts; format: cell-based; conditions: parental Ag 9181
C6, ΨCRIP and 3T3 = conditions: very high concentrations of linamarin; cells without linamarase gene
[13] = system: NlH 3T3 Murine Fibroblasts; format: cell-based; conditions: parental 3T3
[14] = system: rat glioblastoma C6 cells brain tumour
[15] = all human tissues; 1-20 mM linamarin, pH 6 and 7.4, 37°C
[16] = system: ΨCRIPlin plus normal C6 cells labeled red with Dil; format: cell-based
animals = conditions: cited from earlier work
[17] = rat kidney only; 1-20 mM linamarin, pH 6 and 7.4, 37°C
normal rat brains = conditions: local administration of up to 9 mg of linamarin
[18] = system: U-373 MG Human Glioblastoma lin ^+ clones; assay: cells; format: cell-based; conditions: U373 MG, U-373 MG lin+
[19] = system: FLYA13 Human Amphotropic Packaging Cells; format: cell-based; conditions: parental FLYA13
[20] = system: Neoplastic cells forming a tumor; conditions: cited from earlier work
[21] = best clone, read-out: IC50 µg/ml Linamarin lin ^+ clones Best clone
[22] = mean of at least 4 clones, […], read-out: IC50 µg/ml Linamarin lin ^+ clones Mean value

Question: With `CC(C)(C#N)O[C@@H]1O[C@H](CO)[C@@H](O)[C@H](O)[C@H]1O` [linamarin, 2-0H-isobutyronitrile-β-D-glucopyranoside] as the molecule, how does the IC50 ([1]; read-out: IC50 µg/ml Linamarin lin ^+ clones Best clone) read?
Answer: Its IC50 is 7 µg/mL.

Question: And the IC50 ([1]; read-out: IC50 µg/ml Linamarin lin ^+ clones Mean value)?
Answer: Its IC50 is 32 µg/mL.

Question: What about the IC50 ([1]; read-out: concentrations that resulted in 50% cytotoxicity (IC50)) of the same molecule?
Answer: The IC50 was 7 to 60 µg/mL (≈ 28.3 to 243 µM).

Question: What about the “% of survival cells with 1 mg/ml Linamarin” value (shortened to “% of survival cells”) [2] of the same molecule?
Answer: The value was 80%.

Question: What about the IC50 ([3]; FLYA13lin clone, pH 6.6, read-out: estimated IC50) of the same molecule?
Answer: The IC50 was 77 µg/mL (≈ 311 µM).

Question: What about the IC50 ([3]; FLYA13lin clone, pH 7.4, read-out: estimated IC50) of the same molecule?
Answer: Its IC50 is 195 µg/mL (≈ 789 µM).

Question: What about the IC50 ([3]; FLYA13 lin+, best clone, read-out: IC50 µg/ml Linamarin lin ^+ clones Best clone) of the same molecule?
Answer: Its IC50 is 195 µg/mL.

Question: What about the IC50 ([3]; FLYA13 lin+, mean of at least 4 clones, […], read-out: IC50 µg/ml Linamarin lin ^+ clones Mean value) of the same molecule?
Answer: Its IC50 is 382 µg/mL.

Question: And the IC50 [4, 21]?
Answer: The IC50 was 183 µg/mL.

Question: And the IC50 [4, 22]?
Answer: Its IC50 is 215 µg/mL.

Question: And the “% of survival cells” value [5]?
Answer: Its value is 80%.

Question: And the “% of survival cells” value (Hs 683 Human Glioma)?
Answer: Its value is 80%.

Question: What about the “% of survival cells” value ([6]; 1 mg/ml linamarin) of the same molecule?
Answer: Its value is 85%.

Question: And the cell survival values ([6]; up to 2 mg/ml of linamarin)?
Answer: The cell survival values was “did not substantially decrease cell survival values”.

Question: And the “% of survival cells” value (C6 Rat glioma; 1 mg/ml linamarin, parental C6)?
Answer: Its value is 100^a %.

Question: And the “survival of C6 alone” value (C6 Rat glioma; 10 mg/ml linamarin)?
Answer: Its value is 86%.

Question: What about the IC50 ([7]; C6lin clone, pH 6.6, read-out: estimated IC50) of the same molecule?
Answer: The IC50 was 202 µg/mL (≈ 817 µM).

Question: And the IC50 ([7]; C6lin clone, pH 7.4, read-out: estimated IC50)?
Answer: Its IC50 is 345 µg/mL (≈ 1400 µM).

Question: And the IC50 ([7]; C6 lin+, best clone, read-out: IC50 µg/ml Linamarin lin ^+ clones Best clone)?
Answer: Its IC50 is 345 µg/mL.

Question: What about the IC50 ([7]; C6 lin+, mean of at least 4 clones, […], read-out: IC50 µg/ml Linamarin lin ^+ clones Mean value) of the same molecule?
Answer: The IC50 was 407 µg/mL.

Question: And the “IC50 of C6lin clones relative to ΨCRIP individual clones” value ([7]; in general)?
Answer: Its value is 50 times higher.

Question: And the “equivalent of the lethal cyanide dose” value (adults)?
Answer: Its value is 500 to 1000 mg.

Question: And the IC50 [8, 21]?
Answer: Its IC50 is 230 µg/mL.

Question: And the IC50 [8, 22]?
Answer: Its IC50 is 288 µg/mL.

Question: And the “death (cyanide poisoning)” value (Female hamsters)?
Answer: Its value is 18 % of the animals.

Question: And the “outcome of the animal” value ([9]; similar size tumour, only 1 mg of linamarin)?
Answer: Its value is “finally died as a consequence of the tumour”.

Question: What about the “tumour outcome by magnetic resonance imaging” value ([9]; tumour around 70 mm^3, total of 2.4 mg linamarin over 8 days, local infusion, image three weeks after treatment) of the same molecule?
Answer: The value was “total absence of the tumoral mass; also recorded: eradicated completely”.

Question: And the excretion once absorbed [10]?
Answer: The excretion once absorbed was “excreted unchanged in the urine”.

Question: And the “fate of the mixtures” value [11]?
Answer: Its value is “devastated”.

Question: What about the “% of survival cells” value [12] of the same molecule?
Answer: Its value is 89^a %.

Question: What about the “cyanide detected after linamarin treatment” value (C6, ΨCRIP and 3T3) of the same molecule?
Answer: Its value is “No cyanide was detected”.

Question: And the “% of survival cells” value [13]?
Answer: The value was 90^a %.

Question: And the “outcome of the medium size tumour animal” value ([14]; rat, in vivo)?
Answer: The value was “died a month later”.

Question: And the “outcome of control animals treated only with the prodrug” value ([14]; tumours of 220 and 140 mm^3, […])?
Answer: Its value is “died shortly afterwards”.

Question: And the “tumour outcome, largest and smallest glioblastomas” value ([14]; tumours of 1000 mm^3 and 400 mm^3, […])?
Answer: Its value is “total eradication of the tumour”.

Question: What about the “cases developing a recurrence later” value ([14]; very large tumors (over 500 mm^3 in size), after up to six months) of the same molecule?
Answer: Its value is “approximately 50%”.

Question: What about the “linamarase activity (cyanide release from linamarin)” value [15] of the same molecule?
Answer: Its value is “negative results for linamarase activity”.

Question: What about the “viability of either cell type in the mixture” value ([16]; 100 µg/ml linamarin) of the same molecule?
Answer: Its value is “affect only partially the viability”.

Question: And the “fate of both cell types in the mixture” value ([16]; 2.5 mg/ml of linamarin)?
Answer: Its value is “died”.

Question: What about the “toxicity compared with oral dosing” value (animals; administered intraperitoneally) of the same molecule?
Answer: Its value is “practically absent”.

Question: And the “toxicity compared with oral dosing” value (animals; similar doses intravenously)?
Answer: The value was “much lower”.

Question: What about the “linamarase activity (cyanide release from linamarin)” value [17] of the same molecule?
Answer: The value was “low but detectable levels of cyanide production”.

Question: And the toxicity (normal rat brains)?
Answer: Its toxicity is “No apparent toxicity”.

Question: And the IC50 [18, 21]?
Answer: The IC50 was 145 µg/mL.

Question: What about the IC50 [18, 22] of the same molecule?
Answer: The IC50 was 236 µg/mL.

Question: And the “% of survival cells” value [19]?
Answer: Its value is 88^a %.

Question: With `N#CO` [sodium cyanate] as the molecule, how does the “higher sensitivity to the inhibitory effects at decreased extracellular pH” value [20] read?
Answer: The value was no less than 50%.
